Test results published in patent EP0137900B1, “Bis-platinum complexes as antitumor agents” (priority 1983, dated 1985).
One block for each substance: values may come before it.

Assays:
[1] = Solubility (water, organic solvents, 1% NaHCO3, basic solutions); details: result in words
[2] = test system: murine tumor line L1210 leukemia; assay: Antitumor screen against murine L1210 leukemia implanted in mice; assay type: in vivo, CDF1 mice; details: for Percent Increase in Lifespan: start 24 hours after inoculation of 1 x 10^6 L1210 cells in CDF1 mice; for toxic dose: L1210-bearing mice
[3] = 1% nahco3
[4] = in water; cited from earlier work

solubility in 1% NaHC03 solution [1]: dissolves readily
Substance: 5,5'-carbonylbistrimellito bis [(1,2-diaminocyclohexane)platinum(II)1 [Example 6]

Substance: benzenepentacarboxylatobis[(1,2-diaminocyclohexane) platinum(ll)] [Example 1]
Percent Increase in Lifespan ([2]; Dose 2.5 mg/kg, Daily x 7, intraperitoneally, in 1% NaHCO3): 87%
Percent Increase in Lifespan ([2]; Dose 2.5 mg/kg, schedule 'Drugs 1, 5 and 9' [sic], intraperitoneally): 21%
Percent Increase in Lifespan ([2]; Dose 5.0 mg/kg, Daily x 7, intraperitoneally, in 1% NaHCO3): 117%
Percent Increase in Lifespan ([2]; Dose 5.0 mg/kg, schedule 'Drugs 1, 5 and 9' [sic], intraperitoneally): 43%
Percent Increase in Lifespan ([2]; Dose 10.0 mg/kg, Daily x 7, intraperitoneally, in 1% NaHCO3): 61%
Percent Increase in Lifespan ([2]; Dose 10.0 mg/kg, schedule 'Drugs 1, 5 and 9' [sic], intraperitoneally): 135%
Percent Increase in Lifespan ([2]; Dose 20.0 mg/kg, schedule 'Drugs 1, 5 and 9' [sic], intraperitoneally): 193%
toxic dose ([2]; daily x 7 schedule): 20 mg/kg
toxic dose ([2]; days 1, 5, 9 schedule): 40 mg/kg
activity against the experimental murine tumor line L1210 leukemia ([2]; dose range 2.5-20 mg/kg, result in words): active
solubility [3]: greater than 10 mg/ml

Substance: cis-[Pt(NH3)2Cl2] [Cisplatin]
water solubility [4]: about 1 mg/ml
